According to US7998965B2, “Glutamate aggrecanase inhibitors” (Wyeth LLC, priority 2005, dated 2011):
Like-named read-outs stand apart in the source and are kept apart here.

Experiments:
[1] = biological target: T1, recombinant human catalytic domain of MMP-13 (Homo sapiens, UniProt P45452); assay: In vitro fluorescence assay of MMP-13 activity; format: biochemical; conditions: Table 1; unit inferred
T1 construct: catalytic domain of MMP-13 (165 amino acids, residues 104-268, 19 kDa)

MMP-1 = biological target: T2, MMP-1 (Homo sapiens, UniProt P03956); assay: MMP-1 of Table 1; format: biochemical; conditions: for IC50: unit inferred; for MMP-1: unit not given
T2 sequence (P03956 100-469): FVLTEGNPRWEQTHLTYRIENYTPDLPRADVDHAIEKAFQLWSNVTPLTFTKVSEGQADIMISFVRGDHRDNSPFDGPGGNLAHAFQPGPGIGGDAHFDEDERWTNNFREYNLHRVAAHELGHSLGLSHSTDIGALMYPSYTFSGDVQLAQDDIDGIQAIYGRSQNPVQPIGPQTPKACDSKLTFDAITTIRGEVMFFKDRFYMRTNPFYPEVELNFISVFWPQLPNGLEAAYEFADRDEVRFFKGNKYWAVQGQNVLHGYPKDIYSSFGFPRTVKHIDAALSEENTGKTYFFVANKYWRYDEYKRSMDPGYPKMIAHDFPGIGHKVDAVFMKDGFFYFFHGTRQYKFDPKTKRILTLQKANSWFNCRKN

[2] = test system: bovine articular cartilage treated with Interleukin 1 alpha (IL-1α); assay: Bovine articular cartilage explant cultures: inhibition of degradation of proteoglycan; format: cell-based; conditions: inhibitory effect expressed as percentage, concentration not printed
Procedure, shortened: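 Bovine metacarpal cartilage discs (6 mm), equilibrated in serum-free DMEM-based medium, were treated with 5 ng/ml IL-1 plus compound (working solutions 0.1-10 μg/ml), with medium collected and replaced on days 1, 2 and 3. Released proteoglycan was measured by DMMB absorbance at 520 nm against chondroitin sulphate standards, expressed as μg per mg cartilage, and inhibition given as percentage.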

recombinant human MMP-2 = biological target: T3, recombinant human MMP-2 (Homo sapiens, UniProt P08253); assay: In vitro fluorescence assay of MMP-2 activity
T3 sequence (P08253 110-660): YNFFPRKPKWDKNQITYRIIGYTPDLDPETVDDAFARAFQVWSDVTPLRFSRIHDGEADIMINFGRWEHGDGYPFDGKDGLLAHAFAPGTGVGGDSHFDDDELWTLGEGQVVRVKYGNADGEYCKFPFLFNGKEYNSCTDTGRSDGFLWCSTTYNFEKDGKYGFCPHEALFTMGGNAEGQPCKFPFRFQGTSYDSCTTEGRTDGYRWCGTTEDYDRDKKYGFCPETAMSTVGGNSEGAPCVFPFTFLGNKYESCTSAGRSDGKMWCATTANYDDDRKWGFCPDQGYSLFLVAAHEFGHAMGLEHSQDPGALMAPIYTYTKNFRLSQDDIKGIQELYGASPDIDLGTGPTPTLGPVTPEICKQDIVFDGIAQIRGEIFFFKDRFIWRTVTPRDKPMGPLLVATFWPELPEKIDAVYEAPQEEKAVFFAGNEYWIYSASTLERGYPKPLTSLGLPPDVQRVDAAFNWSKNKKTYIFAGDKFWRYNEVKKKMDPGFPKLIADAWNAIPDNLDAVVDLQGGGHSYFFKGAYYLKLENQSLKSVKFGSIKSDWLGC

[3] = biological target: T4, recombinant human catalytic domain of MMP-14 (Homo sapiens, UniProt P50281); assay: In vitro fluorescence assay of MMP-14 activity; format: biochemical; conditions: Table 1; unit inferred
T4 construct: 177 amino acids corresponding to Tyr89-Gly265 of mature human enzyme; purchased Chemicon International, Inc. CC1041

[4] = biological target: T5, purified recombinant human Aggrecanase-1 (rAgg1) (Homo sapiens, UniProt O75173); assay: In vitro fluorescence screen for Aggrecanase-1 inhibitors; format: biochemical; conditions: Table 1; for IC50: read-out: Agg1 IC50
T5 sequence (O75173 213-837): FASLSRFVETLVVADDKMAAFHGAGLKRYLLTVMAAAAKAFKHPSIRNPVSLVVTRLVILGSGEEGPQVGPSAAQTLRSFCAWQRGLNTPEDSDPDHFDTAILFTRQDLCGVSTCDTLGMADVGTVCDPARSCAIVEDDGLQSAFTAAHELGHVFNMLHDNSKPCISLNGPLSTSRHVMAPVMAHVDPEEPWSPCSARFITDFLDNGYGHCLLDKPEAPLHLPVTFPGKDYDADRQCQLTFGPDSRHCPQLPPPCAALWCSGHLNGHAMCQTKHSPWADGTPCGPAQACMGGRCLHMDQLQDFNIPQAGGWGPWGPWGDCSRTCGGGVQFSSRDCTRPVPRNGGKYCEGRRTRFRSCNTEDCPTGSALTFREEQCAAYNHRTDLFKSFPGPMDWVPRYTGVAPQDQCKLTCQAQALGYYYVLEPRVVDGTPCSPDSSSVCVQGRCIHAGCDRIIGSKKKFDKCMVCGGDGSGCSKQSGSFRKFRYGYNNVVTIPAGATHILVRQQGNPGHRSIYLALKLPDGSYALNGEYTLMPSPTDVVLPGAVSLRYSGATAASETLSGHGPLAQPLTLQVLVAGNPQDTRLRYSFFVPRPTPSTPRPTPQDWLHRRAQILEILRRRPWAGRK

[5] = biological target: T6, purified recombinant human Aggrecanase-2 (Ag2t-Phe628-Strep) (Homo sapiens, UniProt Q9UNA0); assay: In vitro fluorescence screen for Aggrecanase-2 inhibitors; format: biochemical; conditions: Table 1; read-out: Agg 2 IC50
T6 construct: the form used is denoted as Ag2t-Phe628-Strep (MW=41,737)
T6 sequence (Q9UNA0 262-628): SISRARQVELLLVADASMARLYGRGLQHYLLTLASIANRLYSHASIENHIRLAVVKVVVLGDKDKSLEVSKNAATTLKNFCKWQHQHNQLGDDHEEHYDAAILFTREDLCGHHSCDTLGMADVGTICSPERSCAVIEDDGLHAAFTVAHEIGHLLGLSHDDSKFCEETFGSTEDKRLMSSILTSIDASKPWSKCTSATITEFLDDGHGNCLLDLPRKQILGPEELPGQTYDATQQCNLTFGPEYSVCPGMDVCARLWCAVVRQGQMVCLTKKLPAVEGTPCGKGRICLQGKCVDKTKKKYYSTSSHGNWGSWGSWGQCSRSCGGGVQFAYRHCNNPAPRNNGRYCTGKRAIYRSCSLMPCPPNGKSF

[6] = Table 1, first of two columns headed bovine
[7] = Table 1, second of two columns headed bovine

IC50 [1] | IC50 (MMP-1) | IC50 (recombinant human MMP-2) | IC50 [3] | IC50 [4] | IC50 [5] | MMP-1 (MMP-1) | Ki ([4]; enzyme not given, column follows Agg1 IC50, read-out: Ki) | SMILES | bovine [2, 6] | bovine [2, 7] | IC50 (recombinant human MMP-2; read-out: MMP-2, Table 1, unit inferred)
~13 µM | > 100 µM | 3 µM | ~13 µM | 0.15 µM | 1.8 µM | – | – | O=C(O)CC[C@H](NC(=O)c1ccc(-c2ccccc2)cc1)C(=O)NCc1ccc2c(c1)OCO2 [Example 7, N^1-(1,3-benzodioxol-5-ylmethyl)-N^2-(1,1′-biphenyl-4-ylcarbonyl)-L-α-glutamine] | 61% | 28% | –
~40 µM | > 100 µM | 4.4 µM | ~25 µM | 0.15 µM | 0.9 µM | – | – | O=C(O)CC[C@H](NC(=O)c1ccc(-c2ccccc2)cc1)C(=O)NC1CCCCC1 [Example 8A, N^2-(1,1′-biphenyl-4-ylcarbonyl)-N^1-cyclohexyl-L-α-glutamine] | 75% | 29% | –
~50 µM | – | 9.1 µM | > 66.6 µM | 0.1 µM | 1.9 µM | no inh | – | O=C(O)CC[C@H](NC(=O)c1ccc(-c2ccccc2)cc1)C(=O)NCCc1ccccc1Cl [Example 8VV, N^2-(biphenyl-4-ylcarbonyl)-N^1-[2-(2-chlorophenyl)ethyl]-L-α-glutamine] | – | – | –
~50 µM | – | 5.6 µM | > 66.6 µM | 0.03 µM | 0.42 µM | no inh | 0.038 µM | CCCCCCNC(=O)[C@H](CCC(=O)O)NC(=O)c1ccc(-c2ccccc2)cc1 [Example 8VVV, N^2-(biphenyl-4-ylcarbonyl)-N^1-hexyl-L-α-glutamine] | – | – | –
~22 µM | – | ~2.5 µM | ~25 µM | 0.075 µM | 0.971 µM | no inh | – | O=C(O)CC[C@H](NC(=O)c1ccc(-c2ccccc2)cc1)C(=O)NCc1ccc(Oc2ccccc2)cc1 [Example 8W, N^2-(1,1′-biphenyl-4-ylcarbonyl)-N^1-(4-phenoxybenzyl)-L-α-glutamine] | – | – | –
~50 µM | – | 13.3 µM | > 66.6 µM | 0.07 µM | 0.35 µM | no inh | – | O=C(O)CC[C@H](NC(=O)c1ccc(-c2ccccc2)cc1)C(=O)NCCc1cccs1 [Example 8WW, N^2-(biphenyl-4-ylcarbonyl)-N^1-[2-(2-thienyl)ethyl]-L-α-glutamine] | – | – | –
~200 µM | – | 7.4 µM | > 200 µM | 0.036 µM | 0.84 µM | no inh | – | O=C(O)CC[C@H](NC(=O)c1ccc(-c2ccccc2)cc1)C(=O)NCCCCCO [Example 8WWW, N^2-(biphenyl-4-ylcarbonyl)-N^1-(5-hydroxypentyl)-L-α-glutamine] | – | – | –
~67 µM | – | 7 µM | ~25 µM | 0.1 µM | 1.1 µM | no inh | – | COc1cccc(CCNC(=O)[C@H](CCC(=O)O)NC(=O)c2ccc(-c3ccccc3)cc2)c1 [Example 8X, N^2-(1,1′-biphenyl-4-ylcarbonyl)-N^1-[2-(3-methoxyphenyl)ethyl]-L-α-glutamine] | – | – | –
~50 µM | – | 7.9 µM | > 200 µM | 0.03 µM | 0.93 µM | no inh | – | O=C(O)CC[C@H](NC(=O)c1ccc(-c2ccccc2)cc1)C(=O)NCCCCCCO [Example 8XXX, N^2-(biphenyl-4-ylcarbonyl)-N^1-(6-hydroxyhexyl)-L-α-glutamine] | – | – | –
~67 µM | – | 5.53 µM | ~25 µM | 0.05 µM | 0.52 µM | no inh | – | COc1ccc(CNC(=O)[C@H](CCC(=O)O)NC(=O)c2ccc(-c3ccccc3)cc2)c(OC)c1 [Example 8Y, N^2-(1,1′-biphenyl-4-ylcarbonyl)-N^1-(2,4-dimethoxybenzyl)-L-α-glutamine] | – | – | –
> 50 µM | – | 9.4 µM | > 200 µM | 0.1 µM | 1.6 µM | no inh | – | CCCNC(=O)[C@H](CCC(=O)O)NC(=O)c1ccc(-c2ccccc2)cc1 [Example 8YYY, N^2-(biphenyl-4-ylcarbonyl)-N^1-propyl-L-α-glutamine] | – | – | –
~67 µM | – | 3.82 µM | ~25 µM | 0.08 µM | 0.68 µM | no inh | – | COc1ccccc1CNC(=O)[C@H](CCC(=O)O)NC(=O)c1ccc(-c2ccccc2)cc1 [Example 8Z, N^2-(1,1′-biphenyl-4-ylcarbonyl)-N^1-(2-methoxybenzyl)-L-α-glutamine] | – | – | –
0.052 µM | ~1.56 µM | 0.0033 µM | 0.0736 µM | < 0.01 µM | 0.0134 µM | – | – | O=C(CC[C@H](NC(=O)c1ccc(-c2ccccc2)cc1)C(=O)NCc1cccc(OC(F)(F)F)c1)NO [Example 33D, N^2-(1,1′-biphenyl-4-ylcarbonyl)-N^5-hydroxy-N^1-[3-(trifluoromethoxy)benzyl]-L-α-glutamamide] | – | – | –

SMILES | IC50 [1] | IC50 (MMP-1) | IC50 (recombinant human MMP-2) | IC50 [3] | IC50 [4] | IC50 [5] | MMP-1 (MMP-1) | Ki ([4]; enzyme not given, column follows Agg1 IC50, read-out: Ki) | bovine [2, 6] | bovine [2, 7] | IC50 (recombinant human MMP-2; read-out: MMP-2, Table 1, unit inferred)
O=C(O)CC[C@H](NC(=O)c1ccc(-c2ccccc2)cc1)C(=O)NCc1ccc(F)cc1 [Example 8D, N^2-(1,1′-biphenyl-4-ylcarbonyl)-N^1-(4-fluorobenzyl)-L-α-glutamine] | ~25 µM | > 100 µM | 4.4 µM | 17 µM | 0.22 µM | – | – | – | 67% | 27% | –
COc1cc(CNC(=O)[C@H](CCC(=O)NO)NC(=O)c2ccc(-c3ccccc3)cc2)cc(OC)c1OC [Example 33A, N^2-(1,1′-biphenyl-4-ylcarbonyl)-N^5-hydroxy-N^1-(3,4,5-trimethoxybenzyl)-L-α-glutamamide] | 0.032 µM | 1.75 µM | – | 0.112 µM | < 0.01 µM | 0.0026 µM | – | – | – | – | 0.0047 µM
